Laboratory results as given in patent US9238631B2, “Radiolabeled amino acids for diagnostic imaging” (PIRAMAL IMAGING SA, priority 2011, dated 2016).

Legend:
[1] = system: H460 cells; assay: Retention of radioactivity in H460 cells (efflux); format: cell-based, human; conditions: 30 minute efflux period after 30 minutes loading
Protocol: The retention of radioactivity in tumor cells was examined. Therefore. H460 cells were loaded with 0.25 MBq of the respective tracer for 30 minutes in PBS buffer, containing 0.1% BSA. After this uptake, the buffer was removed and the cells were washed with PBS. The cells were then reincubated with new PBS buffer, without radioactivity for up to 30 minutes. The release of activity into the supernatant as well as the retention of activity inside the cells was examined. It was discovered, that only a limited amount of activity was released into the supernatant during the 30 minute efflux period. More than 80% of the activity were retained inside the tumor cells during the 30 minute incubation under these efflux conditions.
In addition, the retention of radioactivity in tumor cells was examined. Therefore. H460 cells were loaded with 0.25 MBq of [^18F]-41 for 30 minutes in PBS buffer, containing 0.1% BSA. After this uptake, the buffer was removed and the cells were washed with PBS. The cells were then reincubated with new PBS buffer without radioactivity for 30 min. The release of activity into the supernatant as well as the retention of activity inside the cells was determined. It was discovered, that only a limited amount of activity was released into the supernatant during the 30 minute efflux period. […]

[2] = system: reactive lymph nodes; assay: PET uptake in inflammatory lesions (streptozotocin-induced reactive lymph nodes); format: in vivo, mice; conditions: dynamic PET 1 h, 3 days after streptozotocin
Protocol: To test the specificity of compounds from the present invention, compound [^18F]-41 was examined in an animal model of reactive lymph nodes in comparison to the clinically commonly used PET tracer FDG. Therefore, female immunocompetent NMRI mice (10 weeks old) were injected with streptozotocin (500 μg/40 μL PBS) in the right hind limb to induce an inflammatory reaction in the right popliteal and additional lymph nodes. PET imaging studies were performed 3 days after Streptozotocin injection. PET images were acquired dynamically for 1 h after injection of approximately 5-10 MBq. After the imaging study, region-of-interest (ROI) analysis was performed in the popliteal, inguinal and iliacal lymph nodes. At least 3 animals were examined per tracer.

[3] = system: NCI-H460 tumor; assay: PET imaging in NCI-H460 tumor bearing nude-rats; format: in vivo; conditions: PET ROI analysis, 1 h p.i.
Protocol: c) Beside PET-imaging studies in mice, also the imaging properties of [^18F]-12 in rats were examined. NCI-H460 tumor cells were inoculated into the right flank of nude-rats (RH-Foxn1 nu/nu) 8 to 10 days before the PET study. PET images were acquired at 60 min after injection of approximately 10 MBq for 10 minutes. The H460 tumor was nicely visible (0.9% ID/g as determined by ROI analysis). Beside some minor uptake into the liver and kidneys due to the excretion of the compound, no uptake into other non-target tissues was observed.
To test the imaging properties, compounds from the present invention were evaluated in PET imaging studies using tumor bearing rats. NCI-H460 tumor cells were inoculated into the right flank of nude-rats (RH-Foxn1 nu/nu) 8 to 10 days before the PET study. PET images were acquired at 60 min after injection of approximately 10 MBq for 10 minutes. After the imaging study, region-of-interest (ROI) analysis was performed and activity in tumor, liver and kidney was determined. […] High tumor uptake values of >1% […] in this rat model were obtained with various compounds from the present invention. A favorable clearance profile of all compounds enables excellent tumor detection in PET imaging studies in tumor bearing rats.

[4] = system: NCI-H460 tumor; assay: In vivo biodistribution in NCI-H460 tumor bearing mice; conditions: for T/Blood / T/Muscle: 1 h post injection
Protocol: (§1) To test the pharmacokinetic properties of compounds from the present invention, all F18-labeled compounds were examined by biodistribution studies in NCI-H460 tumor bearing mice. Female NMRI (nu/nu) mice were inoculated with 5×10^6 NCI-H460 tumor cells 8 to 10 days before the biodistribution studies. 185 kBq of activity of the fluorinated compound was injected and at least n=3 mice were used for every time point. After injection of the F18-labeled compound, mice were sacrificed at defined time-points. All organs were removed and radioactivity was determined using a γ-counter.
To compare the tumor uptake and retention of radioactivity of different ^18F-labeled derivatives from the present invention, biodistribution studies were performed in NCI-H460 tumor bearing NMRI (nu/nu) mice as described above.
To compare the kidney clearance of several ^18F-labeled derivatives from the present invention, biodistribution studies were performed in NCI-H460 tumor bearing female NMRI (nu/nu) mice as described above. […] After 2 h p.i., less than 1% ID/g can be found in the kidneys.
For comparison of pancreas uptake and clearance of several ^18F-labeled derivatives from the present invention, biodistribution studies were performed in NCI-H460 tumor bearing NMRI (nu/nu) mice as described above. […] After 2 h p.i., less than 2% ID/g can be found in the pancreas.
as §1, with “and” for “for every time point. After injection of the F18-labeled compound, mice were”, “time-points raning from 15 min pi up to 2 h p.i.” for “time-points.”, “γ-counter. […] High tumor uptake values of >3% ID/g were obtained with various compounds from the present invention.” for “γ-counter.”

[5] = system: NCI-H460 (human NSCLC) cells; assay: Time-dependent uptake and blocking of [^18F]-41 in NCI-H460 cells; format: cell-based
Protocol: NCI-H460 (human NSCLC) cells, grown adherently in 48 well plates were used for these experiments. Approximately 100.000 cells were incubated in PBS-buffer containing 0.1% BSA with 0.25 MBq [^18F]-41 for up to 60 minutes. A time-dependent uptake was observed during the 60 min incubation period. Approximately 13% of applied dose was taken up by the cells during the 60 min incubation period (FIG. 6). For the blocking study [^18F]-41 was co-incubated with 1 mM 41 for 30 minutes. After this time, the cell bound radioactivity was determined.

[6] = system: A549 tumor; conditions: cited from earlier work
[7] = target: T1, xCT (SLC7A11) (Homo sapiens, UniProt Q9UPY5); assay: Competition profile indicating uptake via xCT (SLC7A11); format: cell-based; conditions: co-incubation with 1 mM cold competitors, NCI-H460 cells
T1 construct: NCI-H460 tumor cells were co-incubated with the F-18 labeled tracer and several cold derivatives; endogenous in cells; host or cells: NCI-H460 tumor cells
T1 sequence (Q9UPY5 1-501): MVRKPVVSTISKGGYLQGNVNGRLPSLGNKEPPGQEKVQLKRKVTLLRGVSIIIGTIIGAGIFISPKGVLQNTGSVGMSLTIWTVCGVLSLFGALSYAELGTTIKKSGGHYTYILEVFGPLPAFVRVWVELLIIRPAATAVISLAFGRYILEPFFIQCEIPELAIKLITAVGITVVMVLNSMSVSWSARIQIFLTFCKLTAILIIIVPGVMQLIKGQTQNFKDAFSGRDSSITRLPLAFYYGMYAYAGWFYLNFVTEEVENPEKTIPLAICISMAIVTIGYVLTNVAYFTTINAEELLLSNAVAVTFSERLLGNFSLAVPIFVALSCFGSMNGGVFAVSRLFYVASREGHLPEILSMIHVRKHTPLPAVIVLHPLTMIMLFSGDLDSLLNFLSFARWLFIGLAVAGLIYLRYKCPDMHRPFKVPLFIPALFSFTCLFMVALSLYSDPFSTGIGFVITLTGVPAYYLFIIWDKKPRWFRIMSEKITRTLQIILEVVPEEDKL
T1 sequence (P08195 1-529 partner): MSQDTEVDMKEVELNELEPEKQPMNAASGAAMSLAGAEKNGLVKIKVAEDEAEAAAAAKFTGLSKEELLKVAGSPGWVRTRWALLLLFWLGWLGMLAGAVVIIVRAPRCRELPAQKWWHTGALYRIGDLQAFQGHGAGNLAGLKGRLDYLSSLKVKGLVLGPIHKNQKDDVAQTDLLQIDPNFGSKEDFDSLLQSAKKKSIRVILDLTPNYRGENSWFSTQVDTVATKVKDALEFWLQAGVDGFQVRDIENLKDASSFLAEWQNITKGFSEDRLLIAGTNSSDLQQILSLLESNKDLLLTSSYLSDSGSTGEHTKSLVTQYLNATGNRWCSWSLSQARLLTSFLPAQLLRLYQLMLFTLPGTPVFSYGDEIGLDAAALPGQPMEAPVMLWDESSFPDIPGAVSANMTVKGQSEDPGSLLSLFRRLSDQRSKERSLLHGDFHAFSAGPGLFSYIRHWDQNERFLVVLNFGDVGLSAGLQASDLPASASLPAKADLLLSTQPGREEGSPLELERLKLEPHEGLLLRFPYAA
Protocol: For determination of the responsible uptake mechanism, NCI-H460 tumor cells were co-incubated with the F-18 labeled tracer and several cold derivatives. These derivatives were used at a concentration of 1 mM, which is a large excess compared to the tracer. L-Glutamic acid, L-cystine, Carboxyphenylglycine (CPG) were used as competitors. In addition, also D-Glutamic acid, as well as L-aspartic acid and D-aspartic acid were used in this competition experiments. […] The same experiments were performed using [^18F]-1, [^18F]-4, [^18F]-9, [^18F]-8, [^18F]-25 and [^18F]-22.

[8] = system: NCI-H460 (human NSCLC) cells; assay: Cell uptake studies: 30 min uptake in H460 cells; format: cell-based; conditions: 0.25 MBq tracer, PBS 0.1% BSA
Protocol: For determination of the biological activity, the F18 labeled derivatives were used as tracers in cell uptake experiments. NCI-H460 (human NSCLC) cells, grown adherently in 48 well plates were used for these uptake-experiments. Approximately 100.000 cells were incubated with 0.25 MBq of the tracers for 30 min in PBS-buffer containing 0.1% BSA. After this time, the cell-bound radioactivity was determined using a γ-counter.

SMILES | time-course of activity in the reactive lymph nodes [2] | Kidney (% ID/g at 1 h p.i.) [3] [% ID/g] | Liver (% ID/g at 1 h p.i.) [3] [% ID/g] | Tumor (Max % ID/g at 1 h p.i.) [3] [% ID/g] | Tumor (Mean % ID/g at 1 h p.i.) [3] [% ID/g] | Kidney (% ID/g at 1 h p.i.) [4] [% ID/g] | Liver (% ID/g at 1 h p.i.) [4] [% ID/g] | Pancreas (% ID/g at 1 h p.i.) [4] [% ID/g] | Tumor (% ID/g at 1 h p.i.) [4] [% ID/g] | Urine (% ID at 1 h p.i.) [4] [% ID] | T/Blood [4] | T/Muscle [4] | also measured
N[C@@H](CCC(Cc1ccc(OC[18F])cc1)C(=O)O)C(=O)O (stereo partly drawn) [[^18F]-41, (2S)-2-amino-5-[4-(fluoromethoxy)benzyl]hexanedioic acid] | wash-out of radioactivity | 0.5 | 0.4 | 3.7 | 1.6 | 3.1 ± 0.4 | 0.3 ± 0.1 | 1.0 ± 0.5 | 6.8 ± 1.3 | 69.3 ± 14.5 | 26.3 | 90.6 | activity retained inside the tumor cells [1]: More than 80%; initial uptake in the inflammatory lesions [2]: reduced compared to FDG; tumor uptake and retention (summary statement) ([4]; mouse, in vivo): high tumor uptake and retention; uptake of applied dose by the cells ([5]; 0.25 MBq, 60 min incubation, approx. 100.000 cells): Approximately 13 % of applied dose
N[C@@H](CC(CCC[18F])C(=O)O)C(=O)O (stereo partly shown) [4-(3-[^18F]fluoropropyl)glutamic acid] |  |  |  |  |  |  |  |  |  |  |  |  | Kidney uptake ([6]; 30 min post injection): 6.4 % ID/g; pancreas uptake ([6]; 30 min post injection): 8.5 % ID/g; tumor uptake ([6]; 1 h post injection): 1.6 % ID/g
N[C@@H](CCC(Cc1ccc(OCF)cc1)C(=O)O)C(=O)O (stereo partly drawn) [Example 41, (2S)-2-amino-5-[4-(fluoromethoxy)benzyl]hexanedioic acid] |  |  |  |  |  |  |  |  |  |  |  |  | blocking of [^18F]-41 uptake ([5]; co-incubation with 1 mM 41, 30 minutes): strong competitor
OC[C@H]1OC(O)[C@H]([18F])[C@@H](O)[C@@H]1O (stereo partly shown) [FDG, 2-[^18F]fluorodeoxyglucose, reference compound] | remained almost constant |  |  |  |  |  |  |  |  |  |  |  | 
N[C@@H](CC(Cc1ccc(OCCC[18F])cc1)C(=O)O)C(=O)O (stereo partly drawn) [[^18F]-4, 4-[4-(3-[^18F]Fluoropropoxy)benzyl]-L-glutamic acid] |  | 1.2 | 1.1 | 1 | 0.7 | 1.0 ± 0.3 | 1.5 ± 0.5 | 0.8 ± 0.1 | 2.8 ± 1.8 | 79.8 ± 2.2 | 14.5 | 38.8 | competition profile / uptake mechanism of the tracer [7]: identical competition profile; 30 min uptake into H460 cells [%/100.000 cells] [8]: 10.0 ± 0.3 %/100.000 cells
